Assay results as given in patent US12384800B2, “Antitumoral compounds” (priority 2017, dated 2025).

Experiments:
HT1080 tumors = assay: Human fibrosarcoma xenograft, total diameter (tumor + leg); conditions: iv Days 0, 7 and 14, compound C 3.0 mg/kg, 4-S […], 12-S […]
Description: (§1) Female athymic nu/nu mice (Harlan Laboratories Models, S.L. Barcelona, Spain or Envigo, Spain) were utilized for all experiments. Animal were housed in individually ventilated cages Sealsafe® Plus, Techniplast S.P.A.), up to ten per cage on a 12-hour light-dark cycle at 21-23° C. and 40-60% humidity. […] Animals were acclimated for at least 5 days prior to tumor implantation with a tumor cell suspension.
HT1080 cells were maintained in vitro at 37° C. with 5% CO2 in Minimum Essential Medium Eagle (MEME) (Sigma-Aldrich, Co). Each animal was orthotopically implanted into gastroecnemius muscle by an intramuscular injection using a 26G needle and a 1 cc syringe at 4-6 weeks of age, with 10×10^6 HT1080 cells, suspended in serum free medium, without antibiotics.
(§2) Treatment tolerability was assessed by monitoring body weight evolution, clinical signs of systemic toxicity, as well as evidences of local damage in the injection site.
In xenograft studies with HT1080 cell line: • Total diameter (tumor+leg) measurements were determined by using digital caliper (Fowler Sylvac, S235PAT).
(§3) Treatments producing >20% lethality and/or 20% net body weight loss were considered toxic.

MDA-MB-231 tumors = assay: Human breast xenograft, tumor volume; conditions: iv Days 0, 7 and 14, compound C 3.0 mg/kg, 4-S […], 12-S […]
Description: as §1
MDA-MB-231 cells were maintained in vitro at 37° C. with 5% CO2 in Dulbecco's Modified Eagle's Medium (Sigma-Aldrich, Co). Culture cells were passaged every 3 to 5 days upon reaching confluence.
as §2
(§4) In Xenograft Studies with Other Cell Lines: • Tumor volume was calculated using the equation (a·b^2)/2, where a: length (longest diameter) and b: width (shortest diameter) were measured in mm by using digital caliper (Fowler Sylvac, S235PAT).
as §3

H460 tumors = assay: Human lung (NSCLC) xenograft, tumor volume; conditions: iv Days 0, 7 and 14, compound C 3.0 mg/kg, 4-S […], 12-S […]
Description: as §1
H460 cells were maintained in vitro at 37° C. with 5% CO2 in Dulbecco's Modified Eagle's Medium (Sigma-Aldrich, Co). Culture cells were passaged every 3 to 5 days upon reaching confluence. Each animal was subcutaneously implanted (on the right flank using 26G needle and a 1 cc syringe) at 4-6 weeks of age with 5×10^6 H460 cells suspended in 0.05 mL of a solution consisting of 50% Matrigel® (Corning Incorporated Life Sciences) and 50% medium without serum or antibiotics.
as §2, §4, §3
Tables and figures summarize the data obtained from complete experimental groups, i.e. those groups keeping the initial number of animals, n=8-10.

HGC27 tumors = assay: Human gastric xenograft, tumor volume; conditions: iv Days 0, 7 and 14, compound C 3.0 mg/kg, 4-S […], 12-S […]
Description: as §1
HGC27 cells were maintained in vitro at 37° C. with 5% CO2 in Iscove's Modified Dulbecco's Medium (Sigma Aldrich, Co). Culture cells were passage every 3 to 5 days on reaching confluence. Each animal was subcutaneously implanted (on the right flank using 26G needle and a 1 cc syringe) at 4-6 weeks of age with 5×10^6 HGC-27 cells suspended in 0.05 mL of a solution consisting of 50% Matrigel® (Corning Incorporated Life Sciences), 50% medium without serum or antibiotics.
as §2, §4, §3

A2780 tumors = assay: Human ovarian xenograft, tumor volume; conditions: iv Days 0, 7 and 14, compound C 3.0 mg/kg, 4-S […], 12-S […]
[1] = MTMD (Maximum Tolerated Multiple Dose) determination, iv weekly x 3; format: in vivo; conditions: mice; iv/Q7d × 3
Description: Female CD-1 or Athymic Nude-Fox1 nu/nu mice (Envigo) were utilized for all experiments. […] Animals were acclimated for five days prior to being individually tattoo-identified. Animal protocols were reviewed and approved according to the regional Institutional Animal Care and Use Committees.
Mice were randomly allocated into experimental groups and intravenously administered, once for the MTD (Maximum Tolerated Dose) determination or one administration a week during three consecutive weeks, for the MTMD (Maximum Tolerated Multiple Dose) determination study. The animals were administered with white formulation or with compound dissolved in the experimental formulation at different concentrations. The volume administered was always […]. Once administered, animals were monitored for clinical signs of systemic toxicity, changes in body weight and mortality up to 14 days after the administration.

COc1c(C)cc2c(c1O)[C@@H]1[C@@H]3[C@@H]4SC[C@]5(N[C@H](CN)Cc6c5[nH]c5ccccc65)C(=O)OC[C@@H](c5c6c(c(C)c(OC(C)=O)c54)OCO6)N3[C@@H](O)[C@H](C2)N1C [Compound 12-S]
Total diameter (tumor + leg) (HT1080 tumors; Day 2.0): 8.2 mm | Total diameter (tumor + leg) (HT1080 tumors; Day 5.0): 8.6 mm | Total diameter (tumor + leg) (HT1080 tumors; Day 7.0): 9.5 mm | Total diameter (tumor + leg) (HT1080 tumors; Day 9.0): 10.0 mm | Total diameter (tumor + leg) (HT1080 tumors; Day 12.0): 11.2 mm | Total diameter (tumor + leg) (HT1080 tumors; Day 14.0): 11.7 mm | Total diameter (tumor + leg) (HT1080 tumors; Day 16.0): 12.7 mm | Total diameter (tumor + leg) (HT1080 tumors; Day 19.0): 13.5 mm | Total diameter (tumor + leg) (HT1080 tumors; Day 21.0): 14.4 mm | Total diameter (tumor + leg) (HT1080 tumors; Day 23.0): 16.5 mm | Median Tumor Volume (MDA-MB-231 tumors; Day 2.0): 229.9 mm^3 | Median Tumor Volume (MDA-MB-231 tumors; Day 5.0): 290.5 mm^3 | Median Tumor Volume (MDA-MB-231 tumors; Day 7.0): 398.2 mm^3 | Median Tumor Volume (MDA-MB-231 tumors; Day 9.0): 508.9 mm^3 | Median Tumor Volume (MDA-MB-231 tumors; Day 12.0): 602.5 mm^3 | Median Tumor Volume (MDA-MB-231 tumors; Day 14.0): 751.0 mm^3 | Median Tumor Volume (MDA-MB-231 tumors; Day 16.0): 977.7 mm^3 | Median Tumor Volume (MDA-MB-231 tumors; Day 19.0): 1252.6 mm^3 | Median Tumor Volume (MDA-MB-231 tumors; Day 21.0): 1560.7 mm^3 | Median Tumor Volume (MDA-MB-231 tumors; Day 23.0): 2005.9 mm^3 | Median Tumor Volume (MDA-MB-231 tumors; Day 26.0): 2066.2 mm^3 | Median Tumor Volume (H460 tumors; Day 2.0): 460.5 mm^3 | Median Tumor Volume (H460 tumors; Day 5.0): 922.4 mm^3 | Median Tumor Volume (H460 tumors; Day 7.0): 1252.1 mm^3 | Median Tumor Volume (H460 tumors; Day 9.0): 1409.4 mm^3 | Median Tumor Volume (H460 tumors; Day 12.0): 1531.7 mm^3 | Median Tumor Volume (HGC27 tumors; Day 2.0): 411.9 mm^3 | Median Tumor Volume (HGC27 tumors; Day 5.0): 834.1 mm^3 | Median Tumor Volume (HGC27 tumors; Day 7.0): 1176.6 mm^3 | Median Tumor Volume (HGC27 tumors; Day 9.0): 1531.6 mm^3 | Median Tumor Volume (HGC27 tumors; Day 12.0): 2030.2 mm^3 | Median Tumor Volume (A2780 tumors; Day 2.0): 262.1 mm^3 | Median Tumor Volume (A2780 tumors; Day 5.0): 628.6 mm^3 | Median Tumor Volume (A2780 tumors; Day 7.0): 976.3 mm^3 | Median Tumor Volume (A2780 tumors; Day 9.0): 1387.5 mm^3 | Median Tumor Volume (A2780 tumors; Day 12.0): 1666.0 mm^3

COc1ccc2oc3c(c2c1)CCN[C@]31CS[C@@H]2c3c(OC(C)=O)c(C)c4c(c3[C@H](COC1=O)N1[C@@H]2[C@H]2c3c(cc(C)c(OC)c3O)C[C@@H]([C@@H]1O)N2C)OCO4 [Compound 35]
MTMD [1]: 0.25 mg/kg
